These are literature values, as cited in patent publication US8613910B2, “Flavonoids as synergists for enhancing the action of self-tanning substances” (Merck Patent GmbH, priority 2005, dated 2013).

For the data set the following is noted: amongst the hydroxyflavone structures investigated, entire pH range.

As to `O=c1c(O)c(-c2ccc(O)c(O)c2)oc2cc(O)cc(O)c12` [quercetin, 3,3′,4′,5,7-pentahydroxyflavone], the antioxidant action entry is listed as “greatest activity”.
